# Test results reported in patent publication US4663327A, “1-heteroaryl-4-aryl-pyrazolin-5-ones” (priority 1984, dated 1987).
# Key:
# Leptosphaeria nodorum = Leptosphaeria nodorum test (wheat)/protective; assay type: in vivo; conditions: sprayed, evaluation 10 days after inoculation
# Protocol: Leptosphaeria nodorum test (wheat)/protective Solvent: 100 parts by weight of dimethylformamide Emulsifier: 0.25 parts by weight of alkylaryl polyglycol ether To produce a suitable preparation of active compound, 1 part by weight of active compound is mixed with the stated amounts of solvent and emulsifier, and the concentrate is diluted with water to the desired concentration. To test for protective activity, young plants are sprayed with the preparation of active compound until dew-moist. After the spray coating has dried on, the plants are sprayed with a conidia suspension of Leptosphaeria nodorum. The plants remain for 48 hours in an incubation cabinet at 20° C. and 100% relative atmospheric humidity. The plants are placed in a greenhouse at a temperature of about 15° C. and a relative atmospheric humidity of about 80%. Evaluation is effected 10 days after the inoculation.
# Cochliobolus sativus = Cochliobolus sativus test (barley)/protective; assay type: in vivo; conditions: sprayed, evaluation 7 days after inoculation
# Protocol: Cochliobolus sativus test (barley)/protective Solvent: 100 parts by weight of dimethylformamide Emulsifier: 0.25 parts by weight of alkylaryl polyglycol ether To produce a suitable preparation of active compound, 1 part by weight of active compound is mixed with the stated amounts of solvent and emulsifier, and the concentrate is diluted with water to the desired concentration. To test for protective activity, young plants are sprayed with the preparation of active compound until dew-moist. After the spray coating has dried on, the plants are sprayed with a conidia suspension of Cochliobolus sativus. The plants remain in an incubation cabinet for 48 hours at 20° C. and 100% relative atmospheric humidity. The plants are placed in a greenhouse at a temperature of about 20° C. and a relative atmospheric humidity of about 80%. Evaluation is carried out 7 days after the inoculation.
# Alternaria tenuis = assay: MIC on fungi in agar; conditions: Alternaria alternata, 336 h
# Protocol: (§1) After storage for 2 weeks at 28° C. and 60 to 70% relative atmospheric humidity, the MIC is determined.
# Aspergillus niger = assay: MIC on fungi in agar; conditions: 336 h
# Protocol: as §1
# Aureobasidium pullulans = assay: MIC on fungi in agar; conditions: 336 h
# Protocol: as §1
# Chaetomium globosum = assay: MIC on fungi in agar; conditions: 336 h
# Protocol: as §1
# Coniophora puteana = assay: MIC on fungi in agar; conditions: 336 h
# Protocol: as §1
# Lentinus tigrinus = assay: MIC on fungi in agar; conditions: 336 h
# Protocol: as §1
# Penicillium glaucum = assay: MIC on fungi in agar; conditions: 336 h
# Protocol: as §1
# Polyporus versicolor = assay: MIC on fungi in agar; conditions: Trametes versicolor, 336 h
# Protocol: as §1
# Sclerophoma pityophila = assay: MIC on fungi in agar; conditions: Sydowia polyspora, 336 h
# Protocol: as §1
# Trichoderma viride = assay: MIC on fungi in agar; conditions: 336 h
# Protocol: as §1
# Pyricularia oryzae = assay type: in vivo; conditions: rice, sprayed, disease infestation 4 days after inoculation
# Botrytis cinerea = assay: Botrytis test (BEAN)/protective; assay type: in vivo; conditions: sprayed, infected spots on leaves evaluated 3 days after inoculation
# Protocol: Botrytis test (BEAN)/protective Solvent: 4.7 parts by weight of acetone Emulsifier: 0.3 parts by weight alkyl aryl polyglycol ether To produce a suitable preparation of active compound, 1 pat by weight of active compound is mixed with the stated amounts of solvent and emulsifier, and the concentrate is diluted with water to the desired concentration. To test for protective activity, young plants are sprayed with the preparation of active compound until dripping wet. After the spray coating has dried on, 2 small pieces of agar covered with Botrytis cinerea are placed on each leaf. The inoculated plants are placed in a darkened humidity chamber at 20° C. 3 days after the inoculation, the size of the infected spots on the leaves is evaluated.
# Phytophthora infestans = assay type: in vivo; conditions: tomato, sprayed, evaluation 3 days after inoculation
structure (smiles),measurement,setting,value
O=c1c(-c2ccccc2F)c[nH]n1-c1ccccn1 [Example 5],protective activity,Leptosphaeria nodorum,clearly superior activity compared with the prior art
same,protective activity,Cochliobolus sativus,clearly superior activity compared with the prior art
same,MIC,Alternaria tenuis,20 µg/mL
same,MIC,Aspergillus niger,3.5 µg/mL
same,MIC,Aureobasidium pullulans,20 µg/mL
same,MIC,Chaetomium globosum,0.5 µg/mL
same,MIC,Coniophora puteana,2 µg/mL
same,MIC,Lentinus tigrinus,20 µg/mL
same,MIC,Penicillium glaucum,5 µg/mL
same,MIC,Polyporus versicolor,7.5 µg/mL
same,MIC,Sclerophoma pityophila,15 µg/mL
same,MIC,Trichoderma viride,35 µg/mL
O=c1c(-c2ccccc2Cl)c[nH]n1-c1ccccn1 [Example 7],protective activity,Pyricularia oryzae,clearly superior activity compared with the prior art
O=c1c(-c2ccc(Cl)cc2)c[nH]n1-c1ccccn1 [Example 9],protective activity,Leptosphaeria nodorum,clearly superior activity compared with the prior art
same,protective activity,Cochliobolus sativus,clearly superior activity compared with the prior art
O=c1c(-c2c(F)cccc2Cl)c[nH]n1-c1ccccn1 [Example 11],protective activity,Botrytis cinerea,clearly superior activity compared with the prior art
same,protective activity,Pyricularia oryzae,clearly superior activity compared with the prior art
O=c1c(-c2ccc(Cl)cc2Cl)c[nH]n1-c1ccccn1 [Example 12],protective activity,Botrytis cinerea,clearly superior activity compared with the prior art
same,protective activity,Cochliobolus sativus,clearly superior activity compared with the prior art
O=c1c(-c2ccc(Cl)c(Cl)c2)c[nH]n1-c1ccccn1 [Example 13],protective activity,Phytophthora infestans,clearly superior activity compared with the prior art
COc1ccc(-c2c[nH]n(-c3ccccn3)c2=O)cc1 [Example 15],protective activity,Leptosphaeria nodorum,clearly superior activity compared with the prior art
same,MIC,Alternaria tenuis,50 µg/mL
same,MIC,Aspergillus niger,20 µg/mL
same,MIC,Aureobasidium pullulans,50 µg/mL
same,MIC,Chaetomium globosum,0.5 µg/mL
same,MIC,Coniophora puteana,5 µg/mL
same,MIC,Lentinus tigrinus,50 µg/mL
same,MIC,Penicillium glaucum,75 µg/mL
same,MIC,Polyporus versicolor,20 µg/mL
same,MIC,Sclerophoma pityophila,50 µg/mL
same,MIC,Trichoderma viride,1000 µg/mL
O=c1c(-c2ccc(SC(F)(F)F)cc2)c[nH]n1-c1ccccn1 [Example 19],protective activity,Leptosphaeria nodorum,clearly superior activity compared with the prior art
O=c1c(-c2cccc(C(F)(F)F)c2)c[nH]n1-c1ccccn1 [Example 24],protective activity,Leptosphaeria nodorum,clearly superior activity compared with the prior art
same,protective activity,Cochliobolus sativus,clearly superior activity compared with the prior art
O=c1c(-c2ccc(C(F)(F)F)cc2)c[nH]n1-c1ccccn1 [Example 25],protective activity,Pyricularia oryzae,clearly superior activity compared with the prior art
O=c1c(-c2cc(C(F)(F)F)ccc2Cl)c[nH]n1-c1ccccn1 [Example 26],protective activity,Leptosphaeria nodorum,clearly superior activity compared with the prior art
same,protective activity,Cochliobolus sativus,clearly superior activity compared with the prior art
O=c1c(-c2cc(C(F)(F)F)cc(C(F)(F)F)c2)c[nH]n1-c1ccccn1 [Example 28],protective activity,Pyricularia oryzae,clearly superior activity compared with the prior art
same,protective activity,Leptosphaeria nodorum,clearly superior activity compared with the prior art
same,protective activity,Cochliobolus sativus,clearly superior activity compared with the prior art
Cc1ccc(-c2c[nH]n(-c3cc(C)c4ccccc4n3)c2=O)cc1 [Example 68],protective activity,Pyricularia oryzae,clearly superior activity compared with the prior art
Cc1cc(-n2[nH]cc(-c3ccc(C(F)(F)F)cc3)c2=O)cc(C)n1 [Example 80],protective activity,Pyricularia oryzae,clearly superior activity compared with the prior art
"O=c1c(-c2ccccc2)c[nH]n1-c1ncccn1 [Example 81, 1-pyrimid-2-yl-4-phenyl-pyrazolin-5-one]",MIC,Alternaria tenuis,75 µg/mL
same,MIC,Aspergillus niger,10 µg/mL
same,MIC,Aureobasidium pullulans,50 µg/mL
same,MIC,Chaetomium globosum,3.5 µg/mL
same,MIC,Coniophora puteana,0.5 µg/mL
same,MIC,Lentinus tigrinus,5 µg/mL
same,MIC,Penicillium glaucum,50 µg/mL
same,MIC,Polyporus versicolor,2 µg/mL
same,MIC,Sclerophoma pityophila,7.5 µg/mL
same,MIC,Trichoderma viride,75 µg/mL
O=c1c(-c2ccccc2Cl)c[nH]n1-c1ncccn1 [Example 84],protective activity,Botrytis cinerea,clearly superior activity compared with the prior art
same,protective activity,Pyricularia oryzae,clearly superior activity compared with the prior art
same,MIC,Alternaria tenuis,50 µg/mL
same,MIC,Aspergillus niger,10 µg/mL
same,MIC,Aureobasidium pullulans,20 µg/mL
same,MIC,Chaetomium globosum,1.5 µg/mL
same,MIC,Coniophora puteana,2 µg/mL
same,MIC,Lentinus tigrinus,50 µg/mL
same,MIC,Penicillium glaucum,20 µg/mL
same,MIC,Polyporus versicolor,35 µg/mL
same,MIC,Sclerophoma pityophila,10 µg/mL
same,MIC,Trichoderma viride,35 µg/mL
"O=c1c(-c2ccc(Cl)cc2)c[nH]n1-c1ncccn1 [Example 85, 1-pyrimid-2-yl-4-(4-chlorophenyl)-pyrazolin-5-one]",MIC,Alternaria tenuis,50 µg/mL
same,MIC,Aspergillus niger,5 µg/mL
same,MIC,Aureobasidium pullulans,50 µg/mL
same,MIC,Chaetomium globosum,1 µg/mL
same,MIC,Coniophora puteana,3.5 µg/mL
same,MIC,Lentinus tigrinus,7.5 µg/mL
same,MIC,Penicillium glaucum,10 µg/mL
same,MIC,Polyporus versicolor,5 µg/mL
same,MIC,Sclerophoma pityophila,20 µg/mL
same,MIC,Trichoderma viride,100 µg/mL
O=c1c(-c2ccccc2Br)c[nH]n1-c1ncccn1 [Example 86],MIC,Alternaria tenuis,20 µg/mL
same,MIC,Aspergillus niger,10 µg/mL
same,MIC,Aureobasidium pullulans,20 µg/mL
same,MIC,Chaetomium globosum,1 µg/mL
same,MIC,Coniophora puteana,5 µg/mL
same,MIC,Lentinus tigrinus,2 µg/mL
same,MIC,Penicillium glaucum,50 µg/mL
same,MIC,Polyporus versicolor,2 µg/mL
same,MIC,Sclerophoma pityophila,10 µg/mL
same,MIC,Trichoderma viride,35 µg/mL
O=c1c(-c2c(F)cccc2Cl)c[nH]n1-c1ncccn1 [Example 87],protective activity,Botrytis cinerea,clearly superior activity compared with the prior art
O=c1c(-c2ccc(Cl)cc2Cl)c[nH]n1-c1ncccn1 [Example 88],protective activity,Botrytis cinerea,clearly superior activity compared with the prior art
O=c1c(-c2ccc(Cl)c(Cl)c2)c[nH]n1-c1ncccn1 [Example 89],protective activity,Botrytis cinerea,clearly superior activity compared with the prior art
COc1ccccc1-c1c[nH]n(-c2ncccn2)c1=O [Example 90],MIC,Alternaria tenuis,75 µg/mL
same,MIC,Aspergillus niger,35 µg/mL
same,MIC,Aureobasidium pullulans,75 µg/mL
same,MIC,Chaetomium globosum,15 µg/mL
same,MIC,Coniophora puteana,5 µg/mL
same,MIC,Lentinus tigrinus,100 µg/mL
same,MIC,Penicillium glaucum,35 µg/mL
same,MIC,Polyporus versicolor,10 µg/mL
same,MIC,Sclerophoma pityophila,15 µg/mL
same,MIC,Trichoderma viride,150 µg/mL
COc1ccc(-c2c[nH]n(-c3ncccn3)c2=O)cc1 [Example 91],MIC,Alternaria tenuis,100 µg/mL
same,MIC,Aspergillus niger,50 µg/mL
same,MIC,Aureobasidium pullulans,150 µg/mL
same,MIC,Chaetomium globosum,20 µg/mL
same,MIC,Coniophora puteana,5 µg/mL
same,MIC,Lentinus tigrinus,100 µg/mL
same,MIC,Penicillium glaucum,10 µg/mL
same,MIC,Polyporus versicolor,20 µg/mL
same,MIC,Sclerophoma pityophila,15 µg/mL
same,MIC,Trichoderma viride,200 µg/mL
O=c1c(-c2cccc(OC(F)(F)F)c2)c[nH]n1-c1ncccn1 [Example 92],protective activity,Phytophthora infestans,clearly superior activity compared with the prior art
same,protective activity,Cochliobolus sativus,clearly superior activity compared with the prior art
O=c1c(-c2ccc(OC(F)(F)F)cc2)c[nH]n1-c1ncccn1 [Example 93],protective activity,Phytophthora infestans,clearly superior activity compared with the prior art
Cc1ccccc1-c1c[nH]n(-c2ncccn2)c1=O [Example 96],protective activity,Botrytis cinerea,clearly superior activity compared with the prior art
O=c1c(-c2ccc(C(F)(F)F)cc2)c[nH]n1-c1ncccn1 [Example 100],protective activity,Phytophthora infestans,clearly superior activity compared with the prior art
same,protective activity,Leptosphaeria nodorum,clearly superior activity compared with the prior art
same,protective activity,Cochliobolus sativus,clearly superior activity compared with the prior art
same,MIC,Alternaria tenuis,50 µg/mL
same,MIC,Aspergillus niger,500 µg/mL
same,MIC,Aureobasidium pullulans,50 µg/mL
same,MIC,Chaetomium globosum,1 µg/mL
same,MIC,Coniophora puteana,5 µg/mL
same,MIC,Lentinus tigrinus,15 µg/mL
same,MIC,Penicillium glaucum,10 µg/mL
same,MIC,Polyporus versicolor,5 µg/mL
same,MIC,Sclerophoma pityophila,20 µg/mL
same,MIC,Trichoderma viride,500 µg/mL
O=c1c(-c2cc(C(F)(F)F)cc(C(F)(F)F)c2)c[nH]n1-c1ncccn1 [Example 104],protective activity,Pyricularia oryzae,clearly superior activity compared with the prior art
Cc1[nH]n(-c2ncccn2)c(=O)c1-c1ccccc1 [Example 106],protective activity,Leptosphaeria nodorum,clearly superior activity compared with the prior art
Cc1ccccc1-c1c[nH]n(-c2ncc(Cl)cn2)c1=O [Example 111],protective activity,Botrytis cinerea,clearly superior activity compared with the prior art
Cc1cc(-n2[nH]cc(-c3ccc(C(F)(F)F)cc3)c2=O)nc(C)n1 [Example 122],protective activity,Pyricularia oryzae,clearly superior activity compared with the prior art
